Values of other authors as cited in patent publication US20100197018A1, “USE OF SUBSTRATES AS PHARMACOLOGICAL CHAPERONES” (AMICUS THERAPEUTICS, INC., priority 2007, published 2010).
Read-outs that look alike come from different tables or passages of the source.

Key:
[1] = biological target: T1, N-acetyl-glucosamine-6-sulfate sulfatase (6S) Form A (Homo sapiens, UniProt P15586); settings: for Relative catalytic efficiency*: kcat./Km calculated relative to a value for GlcNAc6S = 1; for pH optimum: Table 6; for Ratio of catalytic efficiencies: form A/form B: form A over form B; for Relative catalytic efficiency*, value in parentheses: relative to GlcNAc6S = 1
T1 sequence (P15586 37-552): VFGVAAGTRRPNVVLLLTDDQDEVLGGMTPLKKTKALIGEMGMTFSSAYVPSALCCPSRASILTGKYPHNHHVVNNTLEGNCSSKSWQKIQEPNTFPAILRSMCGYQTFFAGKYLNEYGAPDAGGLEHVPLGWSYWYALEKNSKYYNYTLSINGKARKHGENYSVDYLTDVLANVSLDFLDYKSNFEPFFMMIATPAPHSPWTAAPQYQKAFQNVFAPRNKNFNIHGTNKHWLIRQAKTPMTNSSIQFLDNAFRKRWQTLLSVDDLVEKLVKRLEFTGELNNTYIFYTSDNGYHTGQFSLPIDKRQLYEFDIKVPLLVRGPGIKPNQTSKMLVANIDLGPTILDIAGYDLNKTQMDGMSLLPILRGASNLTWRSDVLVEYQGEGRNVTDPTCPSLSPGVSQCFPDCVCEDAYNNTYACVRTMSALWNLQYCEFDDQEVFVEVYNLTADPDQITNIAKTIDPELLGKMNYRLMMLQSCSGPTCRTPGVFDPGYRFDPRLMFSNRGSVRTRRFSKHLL

[2] = biological target: T2, N-acetyl-glucosamine-6-sulfate sulfatase (6S) Form B (Homo sapiens, UniProt P15586)
T2 sequence (P15586 37-552): T1 sequence (P15586 37-552)

[3] = biological target: T3, heparan-N-sulfatase (Homo sapiens, UniProt P51688); settings: for Km / kcat. (turnover number) / Relative catalytic efficiency*: 37°; for Relative catalytic efficiency*: GlcNS = 1.00
T3 sequence (P51688 21-502): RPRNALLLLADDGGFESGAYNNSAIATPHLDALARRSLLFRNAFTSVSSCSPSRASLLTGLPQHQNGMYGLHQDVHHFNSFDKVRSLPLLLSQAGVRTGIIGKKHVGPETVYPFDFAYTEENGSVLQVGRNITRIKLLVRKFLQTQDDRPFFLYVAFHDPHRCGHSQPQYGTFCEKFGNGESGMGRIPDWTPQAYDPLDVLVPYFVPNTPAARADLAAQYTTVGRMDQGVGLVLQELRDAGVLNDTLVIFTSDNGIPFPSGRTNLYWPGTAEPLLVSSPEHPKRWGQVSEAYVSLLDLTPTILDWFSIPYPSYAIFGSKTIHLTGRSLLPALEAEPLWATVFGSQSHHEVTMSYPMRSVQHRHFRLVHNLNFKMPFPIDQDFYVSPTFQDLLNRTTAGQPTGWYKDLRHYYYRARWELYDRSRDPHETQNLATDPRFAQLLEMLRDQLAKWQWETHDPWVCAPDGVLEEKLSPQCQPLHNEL

[4] = in vivo
[5] = biological target: BACEI (Homo sapiens, UniProt P56817); settings: low concentrations
BACEI, sequence (P56817 46-457 limits assumed): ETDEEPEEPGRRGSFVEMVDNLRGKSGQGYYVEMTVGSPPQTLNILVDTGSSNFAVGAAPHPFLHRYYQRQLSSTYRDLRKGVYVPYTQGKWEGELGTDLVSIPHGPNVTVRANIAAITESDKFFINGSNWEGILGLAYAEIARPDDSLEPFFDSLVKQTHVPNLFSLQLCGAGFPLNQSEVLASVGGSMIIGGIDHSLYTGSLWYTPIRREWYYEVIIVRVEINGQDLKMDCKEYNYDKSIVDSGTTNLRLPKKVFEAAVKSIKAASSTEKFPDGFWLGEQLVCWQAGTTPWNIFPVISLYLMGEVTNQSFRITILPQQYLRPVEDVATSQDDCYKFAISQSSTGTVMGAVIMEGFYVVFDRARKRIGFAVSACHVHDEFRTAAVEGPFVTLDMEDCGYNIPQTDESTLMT

[6] = Form A, parentheses not explained
[7] = Form A, second line of the substrate, parentheses not explained
[8] = Form A, second line of the substrate, parentheses not explained, read-out: Km, value in parentheses
[9] = second line of the substrate, parentheses not explained
[10] = second line of the substrate, parentheses not explained, read-out: Km, value in parentheses
[11] = pH 5.6 (second line of the substrate)
[12] = pH: GlcNS-Ido 6.7, GlcNS-Ido2S 5.5, GlcNS-IdOA 5.6, GlcNS-IdoA-GlcNS-IdOA 5.6, GlcNS-IdoA2S-anM6S 3.6, GlcNS6S-Ido 4.2, GlcNS6S-Ido2S 3.8, GlcNS6S-IdOA 4.2

| Molecule | pH optimum of 6S activity [1] | kcat. (turnover number) ([1]; Form A) | Relative catalytic efficiency* ([1]; Form A) | Km ([1]; Form A, read-out: Km) [µM] | pH optimum [1] | Ratio of catalytic efficiencies: form A/form B [1] | Km ([2]; read-out: Km) [µM] | Relative catalytic efficiency* ([3]; pH (optimum)) | Km [3, 12] [µM] | kcat. (turnover number) [3, 12] | also measured |
| --- | --- | --- | --- | --- | --- | --- | --- | --- | --- | --- | --- |
| O=C[C@H](O)[C@@H](O)[C@H](O)[C@H](O)COS(=O)(=O)O [Glc6S, glucose 6-sulfate] | 5.7 | 0.585 mol/min per mol of enzyme | 0.4 | 62.5 | 5.7 | 1.3 | 62.5 |  |  |  | Kcat [1]: 0.585 mol/min/mol enzyme; Km ([1]; read-out: Km): 62.5 µM |
| CC(=O)N[C@H]1C(O)O[C@H](COS(=O)(=O)O)[C@@H](O)[C@@H]1O (some centres unmarked) [GlcNAc6S, N-acetyl-glucosamine 6-sulfate] | 5.7 | 0.165 mol/min per mol of enzyme | 1.0 | 7.1 | 5.7 | 2.1 | 10 |  |  |  | decrease in the Km ([1]; addition of a 2-acetamido group to Glc6S): 6-9 fold; effect on Kcat ([1]; relative to the parent substrate (Glc6S for GlcNAc6S; GlcNAc6S for GlcNAc6S-Ido)): decrease in Kcat |
| CC(=O)N[C@H]1[C@@H](O[C@@H]([C@H](O)[C@@H](O)CO)[C@@H](O)C(=O)O)O[C@H](COS(=O)(=O)O)[C@@H](O)[C@@H]1O [GlcNAc6S-IdOA, O-(α-N-acetylglucosamine 6-sulphate)-(1-3)-L-idonic acid] | 5.0 | 7.90 mol/min per mol of enzyme | 31 | 11.1 | 5.0 | 2.4 | 14.3 |  |  |  | Relative catalytic efficiency*, value in parentheses [1, 6]: (29); kcat. (turnover number), value in parentheses [1, 7]: (6.79) mol/min per mol of enzyme; Km [1, 8]: 10 µM; Ratio of catalytic efficiencies: form A/form B, value in parentheses [1, 9]: (2.8); pH optimum, value in parentheses [1, 9]: (5.0); Km [2, 10]: 13.2 µM |
| O=C(O)[C@H](O)[C@@H](O[C@H]1O[C@H](COS(=O)(=O)O)[C@@H](O)[C@H](O)[C@H]1NS(=O)(=O)O)[C@H](O)[C@@H](O)CO [GlcNS6S-IdOA, O-(α-2-sulphaminoglucosamine 6 sulphate)-(1-3)-L-idonic acid] |  | 2.46 mol/min per mol of enzyme | 13 | 8 | 5.0 | 2.2 | 8.3 | 33 | 2.5 | 0.105 mol/min per mol of enzyme | Km [3, 11]: 2.4 µM; kcat. (turnover number) [3, 11]: 0.088 mol/min per mol of enzyme; Relative catalytic efficiency* [3, 11]: 50; Relative catalytic efficiency*, value in parentheses [1, 6]: (9.8); kcat. (turnover number), value in parentheses [1, 7]: (1.725) mol/min per mol of enzyme; Km [1, 8]: 7.6 µM; Ratio of catalytic efficiencies: form A/form B, value in parentheses [1, 9]: (2.5); pH optimum, value in parentheses [1, 9]: (5.0); Km [2, 10]: 6.6 µM |
| O=C[C@H](OS(=O)(=O)O)[C@@H](O)[C@H](O[C@H]1O[C@H](COS(=O)(=O)O)[C@@H](O)[C@H](O)[C@H]1NS(=O)(=O)O)[C@@H](O)CO [GlcNS6S-Ido2S, O-(α-2-sulphaminoglucosamine 6-sulphate)-(1-4)-L-idose 2-sulphate] |  | 0.201 mol/min per mol of enzyme | 3.8 | 2.3 | 4.2 |  |  | 388 | 4.1 | 3.333 mol/min per mol of enzyme |  |
| O=C[C@H](O)[C@@H](O)[C@H](O[C@H]1O[C@H](COS(=O)(=O)O)[C@@H](O)[C@H](O)[C@H]1NS(=O)(=O)O)[C@@H](O)CO [GlcNS6S-Ido, O-(α-2-sulphaminoglucosamine 6-sulphate)-(1-4)-L-idose] |  | 0.518 mol/min per mol of enzyme | 2.1 | 10.8 | 4.8 | 1.9 | 9.2 | 28 | 3 | 0.061 mol/min per mol of enzyme |  |
| O=C(O)[C@@H]1O[C@@H](O[C@H]2[C@H](O)[C@@H](CO)O[C@@H]2COS(=O)(=O)O)[C@H](OS(=O)(=O)O)[C@@H](O)[C@@H]1O[C@H]1O[C@H](CO)[C@@H](O)[C@H](O)[C@H]1NS(=O)(=O)O [GlcNS-IdoA2S-anM6S, O-α-2-sulphaminoglucosamine)-(1-4) O-L-(α-iduronic-acid 2-sulphate)-(1-4)-O-D-(2,5)-anhydro-mannitol 6-sulphate] |  |  |  |  |  |  |  | 67193 | 3.8 | 186 mol/min per mol of enzyme | Km [3, 11]: 5.3 µM; kcat. (turnover number) [3, 11]: 117 mol/min per mol of enzyme; Relative catalytic efficiency* [3, 11]: 30237 |
| O=C(O)[C@H](O)[C@@H](O[C@H]1O[C@H](CO)[C@@H](O[C@@H]2O[C@@H](C(=O)O)[C@@H](O[C@H]3O[C@H](CO)[C@@H](O)[C@H](O)[C@H]3NS(=O)(=O)O)[C@H](O)[C@H]2O)[C@H](O)[C@H]1NS(=O)(=O)O)[C@H](O)[C@@H](O)CO [GlcNS-IdoA-GlcNS-IdOA, O-(α-2-sulphaminoglucosamine)-(1-4)-L-O-(α-iduronic acid)-(1-4)-O-D-(α-2-sulphaminoglucosamine)-(1-3)-L-idonic acid] |  |  |  |  |  |  |  | 6927 | 10.3 | 52 mol/min per mol of enzyme | pH optimum of the enzyme for the substrate ([3]; purified enzyme): 5.5 |
| heparan sulphate |  |  |  |  |  |  |  |  |  |  | oral activity [4]: orally active |
| heparin |  |  |  |  |  |  |  |  |  |  | effect on partially active BACEI [5]: stimulate partially active BACEI |
